The values below come from ChEMBL document CHEMBL1201862, “PubChem BioAssay data set” (2004).

Test systems include A549; CCRF-CEM; HCT-15; HL-60; M14; MDA-N; MOLT-4; NCI-H226; NCI-H23; NCI/ADR-RES; OVCAR-3; PC-3; SF-268; SK-MEL-28; SK-MEL-2; SK-MEL-5; SNB-19; SW-620; TK-10.
Assay in all cases: inhibition of tumour cell growth, NCI panel, 48 h

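In this assay, cells in 96-well plates receive the compound at five concentrations for 48 hours. Endpoints are linearly interpolated between the surrounding concentrations. GI50: concentration for 50% inhibition of growth.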 Active and inactive are the calls of the source. Cut-off read from the data, not from the text of the source: active = GI50 up to about 1.1 µM and inactive = higher. Where only a bound is given, the exact number is not on record here.

With `C=CC[C@@H](N)C(=O)N(C)[C@@H](C)[C@@H](O)c1ccccc1`, the GI50 in the assay with A549 is > 100 µM (inactive); with CCRF-CEM, > 100 µM (inactive); in the assay with HCT-15, > 100 µM; in the assay on HL-60 it was > 100 µM (inactive); in the assay with M14, > 100 µM (inactive); in the assay on MDA-N it was > 100 µM (inactive). Moreover, the GI50 with MOLT-4, in the assay on NCI-H226, in the assay with NCI-H23, in the assay with NCI/ADR-RES, in the assay with OVCAR-3 and in the assay with PC-3 was > 100 µM (inactive) throughout. Besides, the GI50 in the assay with SF-268, in the assay with SK-MEL-28, in the assay on SK-MEL-2, in the assay with SK-MEL-5, in the assay with SNB-19 and in the assay on SW-620 was > 100 µM (inactive) each time. The GI50 in the assay on TK-10 is > 100 µM (inactive).

Consider `COc1ccccc1NC(=S)Nc1cc(C)cc(C)n1`, for which the GI50 in the assay on A549 is > 100 µM (inactive); with CCRF-CEM it was > 100 µM (inactive); in the assay on HCT-15 it was > 100 µM; in the assay on HL-60, > 100 µM (inactive); with M14, > 100 µM (inactive); in the assay with MDA-N it was > 100 µM (inactive). In addition, the GI50 was > 100 µM (inactive) in the assay on MOLT-4; > 100 µM (inactive) in the assay on NCI-H226; > 100 µM (inactive) in the assay with NCI-H23; > 100 µM (inactive) in the assay with NCI/ADR-RES; > 70.8 µM (inactive) in the assay on OVCAR-3; > 89.9 µM (inactive) in the assay with PC-3. In addition, the GI50 in the assay with SF-268, in the assay on SK-MEL-28, in the assay on SK-MEL-2, in the assay with SK-MEL-5, with SNB-19 and in the assay with SW-620 was > 100 µM (inactive) in each case. The GI50 in the assay with TK-10 is > 100 µM (inactive).

In the case of `CCOC(=O)C(C)c1nc2cc(C(F)(F)F)ccc2[nH]c1=O` (stereo not given), the GI50 with A549 is > 100 µM (inactive); in the assay on CCRF-CEM it was > 100 µM (inactive); with HCT-15, > 100 µM; in the assay with HL-60, 62.7 µM (inactive); in the assay on M14, > 100 µM (inactive); in the assay with MDA-N it was > 100 µM (inactive). In addition, the GI50 with MOLT-4 is 85.5 µM (inactive); with NCI-H226, > 100 µM (inactive); in the assay on NCI-H23 it was 81.7 µM (inactive); in the assay with NCI/ADR-RES, 47.8 µM (inactive); with OVCAR-3 it was 82 µM (inactive); in the assay on PC-3, 49 µM (inactive). Moreover, the GI50 is > 100 µM (inactive) with SF-268; > 100 µM (inactive) in the assay with SK-MEL-28; > 100 µM (inactive) in the assay on SK-MEL-2; 42.2 µM (inactive) with SK-MEL-5; > 100 µM (inactive) with SNB-19; > 100 µM (inactive) in the assay with SW-620. The GI50 with TK-10 is > 100 µM (inactive).

As to `COc1ccc(C(=O)Nc2ccc3oc(-c4ccccc4)nc3c2)cc1`, the GI50 is > 100 µM (inactive) in the assay with A549; > 100 µM (inactive) in the assay on CCRF-CEM; > 100 µM in the assay with HCT-15; > 100 µM (inactive) with HL-60; > 100 µM (inactive) in the assay on M14; > 100 µM (inactive) in the assay on MDA-N. Also, the GI50 was > 100 µM (inactive) in the assay with MOLT-4; > 100 µM (inactive) in the assay on NCI-H226; > 100 µM (inactive) in the assay on NCI-H23; 70.1 µM (inactive) with NCI/ADR-RES; > 100 µM (inactive) in the assay on OVCAR-3; > 100 µM (inactive) in the assay with PC-3. The GI50 is > 100 µM (inactive) with SF-268; > 100 µM (inactive) with SK-MEL-28; > 100 µM (inactive) in the assay on SK-MEL-2; > 100 µM (inactive) with SK-MEL-5; 50.5 µM (inactive) with SNB-19; > 100 µM (inactive) with SW-620. The GI50 in the assay on TK-10 is > 100 µM (inactive).

For `COC1=CC(=O)N(C)C(O)C1(C#N)OC1OC(CO)C(O)C(O)C1O` (stereo not given), the GI50 is > 100 µM (inactive) in the assay on A549; > 10 µM (inactive) in the assay on CCRF-CEM; > 100 µM in the assay on HCT-15; > 100 µM (inactive) in the assay with HL-60; > 100 µM (inactive) in the assay on M14; > 100 µM (inactive) with MDA-N. Besides, the GI50 in the assay on MOLT-4, with NCI-H226, in the assay on NCI-H23, in the assay on NCI/ADR-RES, with OVCAR-3 and with PC-3 was > 100 µM (inactive) each time. Moreover, the GI50 with SF-268, with SK-MEL-28, in the assay with SK-MEL-2, with SK-MEL-5, in the assay on SNB-19 and in the assay with SW-620 was > 100 µM (inactive) throughout. In addition, the GI50 with TK-10 is > 100 µM (inactive).

As for `C/C(=C\c1csc(C)n1)[C@@H]1C[C@@H]2O[C@@H]2CCC[C@H](C)[C@H](O)[C@@H](C)C(=O)C(C)(C)[C@@H](O)CC(=O)O1.C/C(=C\c1csc(C)n1)[C@@H]1C[C@@H]2O[C@]2(C)CCC[C@H](C)[C@H](O)[C@@H](C)C(=O)C(C)(C)[C@@H](O)CC(=O)O1`, the GI50 in the assay on A549 is 0.0039 µM (active); in the assay on CCRF-CEM it was 0.0478 µM (active); in the assay on HCT-15, 0.00218 µM; in the assay with HL-60, 0.00475 µM (active); with M14, 0.00266 µM (active); in the assay with MDA-N, 0.000326 µM (active). Further, the GI50 in the assay on MOLT-4 is 0.00738 µM (active); in the assay with NCI-H226 it was 0.0455 µM (active); in the assay with NCI-H23, 0.00664 µM (active); with NCI/ADR-RES it was 0.0191 µM (active); in the assay with OVCAR-3 it was 0.00333 µM (active); in the assay on PC-3 it was 0.00469 µM (active). Also, the GI50 with SF-268 is 0.0122 µM (active); with SK-MEL-28 it was 0.00475 µM (active); in the assay on SK-MEL-2, 0.0246 µM (active); in the assay with SK-MEL-5, 0.00408 µM (active); in the assay with SNB-19 it was 0.0191 µM (active); in the assay on SW-620, 0.00255 µM (active). For the same molecule, the GI50 in the assay with TK-10 is 0.0439 µM (active).

`CC(=O)OC/C=C(/C=C/CNC1CCCCC1)OC(C)=O`: the GI50 was 47.8 µM (inactive) with A549; 4.34 µM (inactive) with CCRF-CEM; 19.2 µM in the assay on HCT-15; > 10 µM (inactive) with HL-60; 8.28 µM (inactive) in the assay with M14; 18 µM (inactive) in the assay on MDA-N. For the same molecule, the GI50 in the assay on MOLT-4 was 36.2 µM (inactive); in the assay with NCI-H226, 25.9 µM (inactive); in the assay on NCI-H23, 16.3 µM (inactive); with NCI/ADR-RES, 19.6 µM (inactive); with OVCAR-3, 17.4 µM (inactive); with PC-3, 17.3 µM (inactive). The GI50 in the assay with SF-268 was 17.1 µM (inactive); in the assay with SK-MEL-28, 16.8 µM (inactive); in the assay on SK-MEL-2, 19.8 µM (inactive); in the assay on SK-MEL-5, 17.9 µM (inactive); with SNB-19, 24.5 µM (inactive); in the assay on SW-620, 14 µM (inactive). For the same molecule, in the assay with TK-10, the GI50 was 16.6 µM (inactive).

`Cc1n[nH]/c(=N\S(=O)(=O)c2ccc(/N=N/c3c(O)c(C(=O)O)cc4ccccc34)cc2)s1`: the GI50 with A549 was > 100 µM (inactive); in the assay on CCRF-CEM it was > 100 µM (inactive); in the assay on HCT-15, > 100 µM; with HL-60 it was > 100 µM (inactive); in the assay with M14, > 100 µM (inactive); with MDA-N it was > 100 µM (inactive). In addition, the GI50 with MOLT-4, in the assay on NCI-H226, in the assay on NCI-H23, in the assay with NCI/ADR-RES, in the assay on OVCAR-3 and in the assay on PC-3 was > 100 µM (inactive) throughout. For the same molecule, the GI50 in the assay on SF-268, in the assay on SK-MEL-28, in the assay with SK-MEL-2, with SK-MEL-5, with SNB-19 and in the assay with SW-620 was > 100 µM (inactive) in each case. The GI50 with TK-10 was > 100 µM (inactive).

As to `C[N+]1(CCCCN2c3ccccc3Sc3cc(N=[N+]=[N-])ccc32)CCN(C(=O)CCNC(=O)Cc2ccc(C(=O)c3ccccc3)cc2)CC1`, the GI50 in the assay on A549 was 27.4 µM (inactive); with CCRF-CEM, 23.3 µM (inactive); with HCT-15, 22.8 µM; in the assay on HL-60, 9.1 µM (inactive); in the assay on M14, 23.4 µM (inactive); with MDA-N, 24.8 µM (inactive). The GI50 in the assay with MOLT-4 is 23.1 µM (inactive); in the assay on NCI-H226, 36.1 µM (inactive); in the assay on NCI-H23, 26.4 µM (inactive); with NCI/ADR-RES, 35.9 µM (inactive); in the assay on OVCAR-3, 20.4 µM (inactive); with PC-3, 20.5 µM (inactive). The GI50 was 23.4 µM (inactive) in the assay with SF-268; 16 µM (inactive) in the assay with SK-MEL-28; 29.4 µM (inactive) in the assay on SK-MEL-2; 20.6 µM (inactive) in the assay on SK-MEL-5; 26.9 µM (inactive) in the assay with SNB-19; 29.2 µM (inactive) in the assay with SW-620. Also, the GI50 in the assay with TK-10 is 11.4 µM (inactive).

For the molecule `CC(=O)OCCC1c2ccccc2-n2nc(-c3ccccc3)c(O)c21` (stereo not given), the GI50 in the assay on A549 was 17.7 µM (inactive); in the assay on CCRF-CEM, 11.6 µM (inactive); with HCT-15, 16.8 µM; in the assay with HL-60, 11.1 µM (inactive); in the assay with M14, 15.3 µM (inactive); in the assay with MDA-N it was 17.5 µM (inactive). The GI50 in the assay on MOLT-4 is 9.66 µM (inactive); with NCI-H226, 26 µM (inactive); with NCI-H23, 16.6 µM (inactive); in the assay with NCI/ADR-RES, 14.8 µM (inactive); with OVCAR-3, 21.3 µM (inactive); in the assay on PC-3, 17.3 µM (inactive). Besides, the GI50 was 34.7 µM (inactive) in the assay on SF-268; 16.2 µM (inactive) with SK-MEL-28; 27.1 µM (inactive) in the assay on SK-MEL-2; 17 µM (inactive) in the assay with SK-MEL-5; 14.6 µM (inactive) in the assay with SNB-19; 15.8 µM (inactive) in the assay on SW-620. In the assay with TK-10, the GI50 was 22.1 µM (inactive).
